Reference: US20240124412A1, “IKAROS ZINC FINGER FAMILY DEGRADERS AND USES THEREOF” (Gilead Sciences, Inc., priority 2021, published 2024)
Where two headings read alike, the source gives them in different places.

Experiments:
IKZF1 = biological target: T1, IKZF1 (Homo sapiens, UniProt Q13422+Q96SW2); test: HiBiT protein tagging assay, in vitro IKZF1 degradation (HEK293); format: cell-based; details: for Dmax: read-out: IKZF1 Dmax (maximum degradation at the highest concentration tested)
T1 construct: expressed in transfected cells
Method: (§1) In vitro degradation of IKZF1 and IKZF2 was measured using HiBiT protein tagging and detection technology (Promega).
(§2) HiBiT technology (Promega) was used to develop the quantitative assays to measure the cellular IKZFs level by tagging an 11 amino acid HiBit peptides VSGWRLFKKIS (SEQ ID NO:1) to the protein of interest. Reporter plasmids were generated by fusing a linker sequence (GSSGGSSG; SEQ ID NO:2) followed by the HiBiT tag at the C terminus of IKZF1 and IKZF2. The fusion fragments were subsequently cloned into pcDNA5 pcDNA™5/FRT/TO plasmids (Thermo Fisher, cat #V652020) downstream of the Tetracycline operator. The resulting plasmids were co-transfected with pOG44 Flp-Recombinase Expression Vector (Thermo Fisher, cat #V600520) into Flp-In™ T-REx HEK293 line (Thermo Fisher, cat #R78077) and a stable cell pool was selected by adding 100 μg/ml of Hygromycin (Thermo Fisher, cat #10687010). The reporter cell enabled Tet-On inducible reporter expression from a single copy of the integrated gene.
(§3) On Day 1, Cells were grown to ˜80% confluency in TC medium (DMEM Glutamax (Gibco10569), 10% Tet free FBS (Takara 631106), and PenStrep Glutamin (Gibco 10378)) in tissue culture flasks. Doxycycline was then added to a final concentration of 1 μg/ml to induce reporter expression at 37° C. overnight.
(§4) On Day 2, 125 nL of serially-diluted solution of testing compounds were dispensed into 384-well white solid assay plates via ECHO acoustic liquid handler. Cells were lifted by 0.25% Trypsin (Gibco 25200) then pelleted by centrifugation (Beckman Avanti J-E) at 500×g for 5 min. Cell pellets were resuspended in TC medium at the concentration of 3e5/mL and 25 μL of cell suspension were added into each well of compound-spotted plates. The plates were returned to a 37° C. incubator overnight (18-24 hr).
(§5) On Day 3, assay plates were removed from the TC incubator and 25 μL of Nano-Glo lytic detection system (Promega, cat #N3030) was added to each well. Plates were incubated at r.t. for 3 min with shaking, and luminescence was read using an Envision reader (Perkin Elmer).
(§6) All raw data was normalized to DMSO control (final concentration: 0.5%) wells as POC and plotted out for EC50 and Dmax (Maximum degradation at the highest concentration tested in the assay).

IKZF2 = biological target: T2, IKZF2 (Homo sapiens, UniProt Q96SW2+Q9UKS7); test: HiBiT protein tagging assay, in vitro IKZF2 degradation (HEK293); format: cell-based
T2 construct: expressed in transfected cells
Method: as §1, §2, §3, §4, §5, §6

[1] = HEK293, 18-24 hr incubation, normalized to DMSO control
[2] = HEK293, 18-24 hr incubation, normalized to DMSO control, read-out: IKZF1 EC50
[3] = HEK293, HiBiT assay, HEK293, 18-24 hr incubation, normalized to DMSO control; read-out: IKZF2 Dmax (maximum degradation at the highest concentration tested)
[4] = HiBiT assay, HEK293, 18-24 hr incubation, normalized to DMSO control; read-out: IKZF2 EC50

T1 sequence (Q13422 whole entry): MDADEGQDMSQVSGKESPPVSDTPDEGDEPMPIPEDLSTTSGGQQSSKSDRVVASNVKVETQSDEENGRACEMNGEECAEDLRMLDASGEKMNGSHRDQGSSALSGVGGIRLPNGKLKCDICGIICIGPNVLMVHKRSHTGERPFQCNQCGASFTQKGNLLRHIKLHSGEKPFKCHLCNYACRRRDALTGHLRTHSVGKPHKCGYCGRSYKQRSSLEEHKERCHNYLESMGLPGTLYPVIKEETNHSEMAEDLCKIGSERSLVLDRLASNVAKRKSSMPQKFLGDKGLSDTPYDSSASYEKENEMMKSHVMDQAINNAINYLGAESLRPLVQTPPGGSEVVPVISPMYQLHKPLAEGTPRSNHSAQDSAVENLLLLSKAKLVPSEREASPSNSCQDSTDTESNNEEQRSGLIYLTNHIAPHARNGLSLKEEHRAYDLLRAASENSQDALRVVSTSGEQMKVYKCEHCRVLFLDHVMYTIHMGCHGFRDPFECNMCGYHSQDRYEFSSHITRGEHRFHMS
T1 sequence (Q96SW2 whole entry): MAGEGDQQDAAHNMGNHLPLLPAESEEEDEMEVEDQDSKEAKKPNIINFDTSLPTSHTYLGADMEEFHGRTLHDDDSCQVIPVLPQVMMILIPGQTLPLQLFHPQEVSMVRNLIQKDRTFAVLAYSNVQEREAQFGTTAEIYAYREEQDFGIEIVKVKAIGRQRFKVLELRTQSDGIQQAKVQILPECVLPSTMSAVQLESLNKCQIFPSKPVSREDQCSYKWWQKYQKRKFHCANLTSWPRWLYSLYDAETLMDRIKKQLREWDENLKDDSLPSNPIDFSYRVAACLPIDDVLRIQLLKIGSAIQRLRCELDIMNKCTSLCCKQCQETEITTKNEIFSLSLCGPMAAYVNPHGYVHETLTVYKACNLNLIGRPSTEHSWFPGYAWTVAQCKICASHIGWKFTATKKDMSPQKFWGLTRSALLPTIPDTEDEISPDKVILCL
T1 sequence (Q16531 whole entry partner): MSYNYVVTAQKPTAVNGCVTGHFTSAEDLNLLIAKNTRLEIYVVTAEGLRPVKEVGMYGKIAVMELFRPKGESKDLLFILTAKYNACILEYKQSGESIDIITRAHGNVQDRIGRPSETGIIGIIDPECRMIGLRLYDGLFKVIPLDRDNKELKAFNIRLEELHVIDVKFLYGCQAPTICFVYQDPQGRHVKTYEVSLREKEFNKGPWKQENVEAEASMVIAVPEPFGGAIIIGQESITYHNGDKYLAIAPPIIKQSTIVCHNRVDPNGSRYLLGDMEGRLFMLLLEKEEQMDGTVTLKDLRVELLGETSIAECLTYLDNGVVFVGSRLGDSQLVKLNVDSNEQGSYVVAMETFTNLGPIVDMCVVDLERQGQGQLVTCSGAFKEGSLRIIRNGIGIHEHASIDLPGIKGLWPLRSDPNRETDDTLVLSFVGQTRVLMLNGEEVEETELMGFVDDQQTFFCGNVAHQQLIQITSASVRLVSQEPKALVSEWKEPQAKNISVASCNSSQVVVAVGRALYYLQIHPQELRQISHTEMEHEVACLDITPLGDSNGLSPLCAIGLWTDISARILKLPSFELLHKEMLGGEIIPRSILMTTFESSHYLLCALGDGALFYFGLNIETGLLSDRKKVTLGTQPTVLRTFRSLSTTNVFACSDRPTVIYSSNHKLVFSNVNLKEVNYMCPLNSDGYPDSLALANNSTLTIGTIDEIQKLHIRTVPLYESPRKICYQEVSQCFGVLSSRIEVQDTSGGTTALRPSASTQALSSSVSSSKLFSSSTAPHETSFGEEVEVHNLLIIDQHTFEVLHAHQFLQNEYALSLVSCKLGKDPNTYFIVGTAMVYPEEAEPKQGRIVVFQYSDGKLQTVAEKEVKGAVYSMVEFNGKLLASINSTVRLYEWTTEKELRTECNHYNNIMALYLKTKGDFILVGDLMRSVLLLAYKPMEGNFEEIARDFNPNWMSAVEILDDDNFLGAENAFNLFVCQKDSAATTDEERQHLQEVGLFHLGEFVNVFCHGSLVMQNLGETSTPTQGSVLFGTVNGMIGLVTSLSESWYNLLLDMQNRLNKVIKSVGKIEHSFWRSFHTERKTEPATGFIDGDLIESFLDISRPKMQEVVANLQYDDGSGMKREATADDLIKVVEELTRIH
T2 sequence (Q9UKS7 1-500 isoform Q9UKS7-2): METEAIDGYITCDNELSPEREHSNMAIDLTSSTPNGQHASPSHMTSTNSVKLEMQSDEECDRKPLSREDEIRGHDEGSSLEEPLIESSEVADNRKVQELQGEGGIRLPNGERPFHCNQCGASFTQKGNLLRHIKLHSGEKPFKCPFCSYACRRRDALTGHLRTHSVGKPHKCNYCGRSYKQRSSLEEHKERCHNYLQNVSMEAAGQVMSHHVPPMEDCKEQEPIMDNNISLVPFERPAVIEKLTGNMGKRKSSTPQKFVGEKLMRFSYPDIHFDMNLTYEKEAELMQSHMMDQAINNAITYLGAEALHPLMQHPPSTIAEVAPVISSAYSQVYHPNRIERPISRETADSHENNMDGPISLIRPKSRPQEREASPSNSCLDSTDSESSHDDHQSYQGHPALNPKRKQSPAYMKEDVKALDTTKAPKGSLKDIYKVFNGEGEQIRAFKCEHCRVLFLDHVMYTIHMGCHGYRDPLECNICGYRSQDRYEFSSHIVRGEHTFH
T2 sequence (Q96SW2 whole entry): as the sequence (Q96SW2 whole entry) above
T2 sequence (Q16531 whole entry partner): as the sequence (Q16531 whole entry partner) above

Dmax (IKZF1; [1]) | DC50 (IKZF1; [2]) | Dmax (IKZF2; [3]) | DC50 (IKZF2; [4]) | SMILES | DC50 (IKZF1; read-out: IKZF1 EC50, HEK293, 18-24 hr incubation, normalized to DMSO control) | DC50 (IKZF2; read-out: IKZF2 EC50; HiBiT assay, HEK293, 18-24 hr incubation, normalized to DMSO control)
97% | 3 nM | 91% | 23 nM | CC1(c2ccccc2)CCC(NCc2ccc3c(c2)CN(C2CCC(=O)NC2=O)C3=O)CC1 (centres unmarked) [Example 103, 3-(5-(((4-methyl-4-phenylcyclohexyl)amino)methyl)-1-oxoisoindolin-2-yl)piperidine-2,6-dione] | – | –
– | > 10000 nM | 21% | 328 nM | CN(Cc1ccc2c(c1)CN(C1CCC(=O)NC1=O)C2=O)C1CCN(Cc2ccccc2)CC1 (centres unmarked) [Example 18, 3-(5-(((1-benzylpiperidin-4-yl)(methyl)amino)methyl)-1-oxoisoindolin-2-yl)piperidine-2,6-dione] | – | –
97% | 3 nM | 83% | 40 nM | O=C1CCC(N2Cc3cc(CN[C@H]4CC[C@@H](c5ccccc5)CC4)ccc3C2=O)C(=O)N1 (stereo partly drawn) [Example 31, 3-(1-oxo-5-((((1,4-cis)-4-phenylcyclohexyl)amino)methyl)isoindolin-2-yl)piperidine-2,6-dione] | – | –
92% | 27 nM | 83% | 189 nM | C[C@@H]1CC[C@@H](NCc2ccc3c(c2)CN(C2CCC(=O)NC2=O)C3=O)CN1Cc1ccccc1 (stereo partly drawn) [Example 138, 3-(5-((((3R,6R)-1-benzyl-6-methylpiperidin-3-yl)amino)methyl)-1-oxoisoindolin-2-yl)piperidine-2,6-dione] | – | –
85% | 90 nM | 93% | 46 nM | COC[C@@H]1CCCC[C@@H]1NCc1ccc2c(c1)CN(C1CCC(=O)NC1=O)C2=O (stereo partly drawn) [Example 158, 3-(5-((((1S,2R)-2-(methoxymethyl)cyclohexyl)amino)methyl)-1-oxoisoindolin-2-yl)piperidine-2,6-dione] | – | –
32% | 121 nM | 93% | 37 nM | O=C1CCC(N2Cc3cc(CNC45CCC(CC4)C5)ccc3C2=O)C(=O)N1 (centres unmarked) [Example 141] | – | –
93% | 169 nM | 92% | 336 nM | O=C1CCC(N2Cc3cc(CNC4CCCC(Cn5cccn5)C4)ccc3C2=O)C(=O)N1 (centres unmarked) [Example 121] | – | –
42% | 104 nM | 64% | 181 nM | O=C1CCC(N2Cc3cc(CNC4CCCC(C(F)(F)F)C4)ccc3C2=O)C(=O)N1 (stereo not drawn) [Example 128, 3-(1-oxo-5-((((1,3-trans)-3-(trifluoromethyl)cyclohexyl)amino)methyl)isoindolin-2-yl)piperidine-2,6-dione] | – | –
59% | 144 nM | 74% | 171 nM | O=C1CCC(N2Cc3cc(CN[C@H]4CC[C@H](C(F)(F)F)CC4)ccc3C2=O)C(=O)N1 (some centres unmarked) [Example 77] | – | –
82% | 23 nM | 81% | 68 nM | O=C1CCC(N2Cc3cc(CN[C@H]4CCC[C@@H](Cc5ccccc5)C4)ccc3C2=O)C(=O)N1 (some centres unmarked) [Example 116] | – | –
20% | 384 nM | 70% | 657 nM | O=C1CCC(N2Cc3cc(CN[C@@H]4CCCC[C@@H]4CO)ccc3C2=O)C(=O)N1 (stereo partly drawn) [Example 34, 3-(5-((((1R,2S)-2-(hydroxymethyl)cyclohexyl)amino)methyl)-1-oxoisoindolin-2-yl)piperidine-2,6-dione] | – | –
64% | 5100 nM | 66% | 1800 nM | O=C1CCC(N2Cc3cc(CNC4CCCC(CO)C4)ccc3C2=O)C(=O)N1 (stereo not drawn) [Example 97, 3-(5-((((1,3-trans)-3-(hydroxymethyl)cyclohexyl)amino)methyl)-1-oxoisoindolin-2-yl)piperidine-2,6-dione] | – | –

SMILES | Dmax (IKZF1; [1]) | DC50 (IKZF1; [2]) | Dmax (IKZF2; [3]) | DC50 (IKZF2; [4]) | DC50 (IKZF1; read-out: IKZF1 EC50, HEK293, 18-24 hr incubation, normalized to DMSO control) | DC50 (IKZF2; read-out: IKZF2 EC50; HiBiT assay, HEK293, 18-24 hr incubation, normalized to DMSO control)
O=C1CCC(N2Cc3cc(CNC4(c5ccc(F)cc5)CCCCC4)ccc3C2=O)C(=O)N1 (centres unmarked) [Example 153, 3-(5-(((1-(4-fluorophenyl)cyclohexyl)amino)methyl)-1-oxoisoindolin-2-yl)piperidine-2,6-dione] | – | – | 36% | – | > 1000 nM | 122 nM
